Assay [1] has as its system p-AKT (S473). Particulars: PC9 cells; cited from earlier work.
Assay [2] deals with pancytokeratin-positive cells. Kind of assay: Pan-cytokeratin staining of HCC827 xenograft tissue. It counts as in vivo, mouse. Particulars: 2-month treatment. An excerpt:
Tissues: HCC827-derived mouse xenografts were provided by Dr. Sun Shi-yong (Emory University). […] Mice were then euthanized, and the tumor was embedded in OCT for sectioning. The OCT tissues were fixed in acetone, rehydrated, permeabilized in 0.4% Triton X-100, blocked, and ready for multiplexed experiments.

In assay [3] the test system is WNT1. Kind of assay: RapMIF multiplexed immunofluorescence in PC9 cells, WNT1. Format: cell-based, human. Particulars: 40 nM, 48 hours vs control. An excerpt: (§1) RapMIF: The RapMIF setup consisted of an autosampler that transferred antibodies and performed washes of the sample automatically and controlled by a custom-written python code (FIGS. 10A-10D). The buffers used during the procedure are 1×PBS (D8537, Sigma), CSM, and Fluorophore bleaching solution. PBS 1× was the wash buffer for the stabilization of the cells and the tubes. CSM was the imaging buffer that helped in the annealing of antibodies with the cells. Fluorophore bleaching solution was the strip buffer used to remove staining after each cycle. The walls on the 96-well plate for the antibodies were pre-washed with 1×PBS. The well plate was covered with foil stickers to ensure a dark condition. […] Once the cells were mounted and the antibodies and buffers were ready for transfer, automatic staining was done by running Python code. […]
(§2) Cell multiplexing: Each coverslip prepared with cells was stained with 25 markers using a total of 11-12 cycles (FIG. 10C). […] To quantify the frequencies belonging to the signal that disappears after bleaching, a Fourier analysis of before and after bleaching was performed to indicate the difference in frequencies belonging to the signal.
(§3) Image intensity: From nuclei and cytosol cell masks, the mean intensity of markers in each cell area was calculated. […]

Assay [4] deals with p-EGFR (Tyr1086). Kind of assay: p-EGFR immunofluorescence across four drug concentrations. Particulars: PC9 cells, 48 hours. Format: cell-based, human. Here is the method: (§4) Following that, the cells were then fixed and permeabilized with 1.6% formaldehyde in 1×PBS for 10 minutes at RT and 0.5% Triton X-100 for 10 minutes at RT, respectively (FIG. 10A). The cells were then blocked using a cell staining medium (CSM) containing […]. […] PC9 cells were stained with p-EGFR and β-tubulin overnight followed by 1-hour incubation of secondary antibodies at RT, and 15 mins DAPI staining. The cells were then imaged at 40× magnification, and the cell number was analyzed using ImageJ. […] The coverslip was mounted to an acrylic holder for multiple cycles of staining.

Assay [5] deals with PC9 cells. As to the kind of experiment: Subpopulation clustering of single cells (Leiden). The note with it: 40 nM. It counts as cell-based, human.
Assay [6] deals with p-ERK(T202/Y204). Kind of assay: p-ERK immunofluorescence in HCC827 cells. Particulars: 100 nM. Format: cell-based, human. The procedure: Following that, the cells were then fixed and permeabilized with 1.6% formaldehyde in 1×PBS for 10 minutes at RT and 0.5% Triton X-100 for 10 minutes at RT, respectively. The cells were then blocked using a cell staining medium (CSM) containing 0.5% BSA, and 0.02% Sodium Azide in PBS. […] HCC827 cells were stained with p-ERK overnight followed by 1-hour incubation of secondary antibodies at RT, and 10 mins DAPI staining. The cells were then imaged at 40× magnification, and the intensity levels were analyzed. […] The coverslip was mounted to an acrylic holder for multiple cycles of staining.

Assay [7] has as its system NSCLC patients. The note with it: phase 3 clinical trial, 80 mg once daily, vs other EGFR-TKI drugs; cited from earlier work.
Assay [8] concerns p-AKT(S473). Kind of assay: RapMIF multiplexed immunofluorescence in PC9 cells, p-AKT. It counts as cell-based, human. The note with it: 40 nM, 48 hours vs control.
Text: as §1, §2, §3

Assay [9] has as its system p-EGFR (Tyr1086). Kind of assay: RapMIF multiplexed immunofluorescence in PC9 cells, p-EGFR. The note with it: 40 nM. Format: cell-based, human. Here is the method:
as §4

The test system of assay [10] is p-ERK. The note with it: up to 24 hours; cited from earlier work.

Structures are written as SMILES. Entries after “also recorded” stand apart in the source; their conditions may differ.

Turning to `C=CC(=O)Nc1cc(Nc2nccc(-c3cn(C)c4ccccc34)n2)c(OC)cc1N(C)CCN(C)C` [Osimertinib], the “p-AKT (S473) level” value in [1] is “effectively inhibit the p-AKT (S473) level”. For the same compound, the pancytokeratin-positive cells entry in assay [2] is “more pancytokeratin-positive cells”. The WNT1 signaling entry in assay [3] is given as “increased the WNT1 signaling”. The “p-EGFR expression, 60 nM vs 40 nM” value in [4] is recorded as “relatively higher expression under 60 nM than 40 nM”. Besides, in assay [4] (0 to 20 nM to 40 nM, normalized to β-tubulin), the p-EGFR expression entry is given as “decreased the p-EGFR expression as the drug concentration increased from 0 to 20 nM to 40 nM”. The “distribution of treated cells over 12 subpopulations” value in assay [5] was “mainly distributed in subpopulation 3 and subpopulation 0”. The p-ERK level result in assay [6] (6-hour treatment) is recorded as “suppressed initially”. In assay [6] (12-hour treatment), the p-ERK level entry is on record as “increased”. Moreover, in assay [7], the overall survival entry is “longer; also recorded: extended” and the progression-free survival result was “longer; also recorded: extended”. Further, the p-AKT expression result in assay [8] is given as “consistently downregulated; also recorded: consistent downregulation”. For the same compound, the “p-EGFR localization (cell membrane, nucleus)” value in assay [9] (48 hours) is “mainly localized in the cell membrane and the nuclear p-EGFR expression was relatively low”. Further, in assay [9] (48 hours vs control), the “p-EGFR (Tyr1086) expression level in multiplexed heatmap” value is given as “remained minimally enhanced; also recorded: remained minimally altered” and the “spatial continuity of p-EGFR distribution on the cell membrane” value is recorded as “disrupted spatial continuity in the p-EGFR distributions on the cell membrane”. Also, the “p-ERK, total protein level by western blot” value in assay [10] is “inhibitory role of Osimertinib on p-ERK for up to 24 hours”.

The record behind these values is patent US20240060990A1, “SPATIAL SIGNALING NETWORKS FOR MULTIPLEXED DRUG RESPONSE MEASUREMENT AND MODELING” (Georgia Tech Research Corporation, priority 2022, published 2024).
